# Literature values as cited in US20210393726A1, “USE OF EXTRACT OF VEGETATION WATERS IN THE REGENERATION OF EPITHELIAL TISSUE” (FATTORIA LA VIALLAD DI GIANNI, ANTONIO E BANDINO LO FRANCO …, priority 2017, published 2021).
# Conditions: high concentrations, up to 250-500 mg/kg/day
compound,measurement,value
"OCCc1ccc(O)c(O)c1 [Hydroxytyrosol, hydroxytyrosol]",toxic effect on in vivo administration,does not have any toxic effect
